The source of these data is patent publication US20090093448A1, “19-NOR-PROGESTERONE FOR CONTRACEPTION” (GRUNENTHAL GMBH, priority 2007, published 2009).

Counter-ions that a name gives are not always drawn.

The target in assay [1] is T1, human progesterone receptor (Homo sapiens, UniProt P06401).
T1 sequence (P06401 1-933): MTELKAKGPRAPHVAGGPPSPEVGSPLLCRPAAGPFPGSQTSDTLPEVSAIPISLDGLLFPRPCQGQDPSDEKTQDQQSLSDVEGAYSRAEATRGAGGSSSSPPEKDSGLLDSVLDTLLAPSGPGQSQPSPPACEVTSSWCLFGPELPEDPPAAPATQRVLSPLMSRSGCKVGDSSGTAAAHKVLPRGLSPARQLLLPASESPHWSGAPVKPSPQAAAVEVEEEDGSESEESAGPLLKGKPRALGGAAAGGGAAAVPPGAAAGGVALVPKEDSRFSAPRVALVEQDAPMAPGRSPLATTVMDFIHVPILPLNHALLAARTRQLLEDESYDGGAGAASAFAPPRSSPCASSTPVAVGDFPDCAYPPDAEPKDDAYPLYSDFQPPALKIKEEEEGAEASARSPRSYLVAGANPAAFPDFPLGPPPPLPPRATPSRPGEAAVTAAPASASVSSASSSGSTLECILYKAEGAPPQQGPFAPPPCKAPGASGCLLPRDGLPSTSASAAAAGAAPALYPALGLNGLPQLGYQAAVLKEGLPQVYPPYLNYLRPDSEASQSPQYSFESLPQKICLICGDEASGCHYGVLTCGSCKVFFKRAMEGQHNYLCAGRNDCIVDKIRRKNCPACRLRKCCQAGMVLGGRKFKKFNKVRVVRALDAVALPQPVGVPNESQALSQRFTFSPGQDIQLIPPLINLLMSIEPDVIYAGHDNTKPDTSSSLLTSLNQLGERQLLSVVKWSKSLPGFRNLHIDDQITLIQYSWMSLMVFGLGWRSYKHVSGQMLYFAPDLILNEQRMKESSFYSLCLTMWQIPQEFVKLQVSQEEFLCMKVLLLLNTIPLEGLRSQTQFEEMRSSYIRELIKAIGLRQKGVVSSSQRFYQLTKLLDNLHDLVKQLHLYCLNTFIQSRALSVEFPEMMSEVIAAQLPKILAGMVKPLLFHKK
The assay can be described thus: Relative binding affinity for the human progesterone receptor. Particulars: for Relative binding affinity to progesterone receptor: progesterone as reference = 100.

The subject of another assay is endometrium. The assay is described as follows: McPhail test (progestational proliferation of the endometrium). The assay is classed as in vivo, rabbits. The note with it: for Mean McPhail Score (max. 4.0): estrone-primed immature female rabbits, five daily doses. The procedure: Trimegestone sulfate was tested in the McPhail test, which is a test for progesterone and like substances. Immature female rabbits are treated with 150 IU of estrone over a period of 6 days. The test material is then given in five daily subcutaneous doses. Progestational proliferation of the endometrium is noted and the results estimated according to a scale from 0 to 4.0.

For `CC(O)C(=O)C1(C)CCC2C3CCC4=CC(=O)CC(O)C4=C3CCC21C` (stereo not drawn) [1β-OH trimegestone, 1β-hydroxytrimegestone, reference compound], in assay [1], the “Relative binding affinity to progesterone receptor” value (shortened to “Relative binding affinity”) worked out at 64.

For `CC(O)C(=O)C1(C)CCC2C3CC(O)C4=CC(=O)CCC4=C3CCC21C` (stereo not drawn) [6β-OH trimegestone, 6β-hydroxytrimegestone, reference compound], the “Relative binding affinity” value in assay [1] was found to be 12.

Consider `CC(=O)[C@H]1CC[C@H]2[C@@H]3CCC4=CC(=O)CC[C@]4(C)[C@H]3CC[C@]12C` [Progesterone], for which the “Mean McPhail Score (max. 4.0)” value in the assay on endometrium (0.1 mg/kg/day s.c.) was 2.25; in the assay on endometrium (1.0 mg/kg/day s.c.) it was 3.75.

Take `C[C@H](OS(=O)(=O)O)C(=O)[C@@]1(C)CCC2C3CCC4=CC(=O)CCC4=C3CC[C@@]21C` (stereo partly shown) [Trimegestone sulfate, Trimegestone sulfate, pyridinium salt]: in assay [1] (% of the affinity of natural progesterone), the “relative affinity for the progesterone receptor” value is recorded as 40%. For the same compound, the “Relative binding affinity” value in assay [1] turned out to be 40. In addition, the “Mean McPhail Score (max. 4.0)” value stood at 0.75 with endometrium (0.0001 mg/kg/day s.c.); 0.88 in the assay on endometrium (0.001 mg/kg/day s.c.); 2.1 in the assay with endometrium (0.01 mg/kg/day s.c.); 3.31 in the assay on endometrium (0.1 mg/kg/day s.c.); 2.93 with endometrium (1.0 mg/kg/day s.c.); 3.68 with endometrium (10.0 mg/kg/day s.c.). Besides, the “endometrium transforming effects in the McPhail test” value in the assay on endometrium (s.c., 0.0001 to 10.0 mg/kg/day, result in words) is on record as “dose-dependent potent endometrium transforming effects”.
